In patent US9115127B2 (AMGEN INC., priority 2010, dated 2015) one finds IC50 data, which are given here for 25 compounds.

T1 sequence (Q9UM73 1058-1620): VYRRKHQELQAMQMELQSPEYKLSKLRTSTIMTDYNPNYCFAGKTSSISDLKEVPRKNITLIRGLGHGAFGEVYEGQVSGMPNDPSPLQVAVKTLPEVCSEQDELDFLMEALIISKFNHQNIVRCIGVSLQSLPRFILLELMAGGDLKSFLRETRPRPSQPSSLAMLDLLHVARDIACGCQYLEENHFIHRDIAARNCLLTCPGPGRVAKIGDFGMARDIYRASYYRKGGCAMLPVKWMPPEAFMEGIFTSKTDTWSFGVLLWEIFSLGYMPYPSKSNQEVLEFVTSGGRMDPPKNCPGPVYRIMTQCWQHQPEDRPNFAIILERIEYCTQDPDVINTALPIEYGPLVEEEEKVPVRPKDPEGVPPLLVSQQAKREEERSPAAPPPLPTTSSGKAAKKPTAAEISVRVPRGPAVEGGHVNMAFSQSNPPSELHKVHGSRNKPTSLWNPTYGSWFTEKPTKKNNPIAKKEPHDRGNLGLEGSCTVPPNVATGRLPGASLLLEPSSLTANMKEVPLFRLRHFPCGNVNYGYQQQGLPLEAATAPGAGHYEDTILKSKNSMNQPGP

The experiment addresses T1, wild-type human ALK (cytoplasmic domain, amino acids 1058-1620, N-terminal GST fusion) (Homo sapiens, UniProt Q9UM73).
T1 construct: The cytoplasmic domain (amino acids 1058-1620) of wild-type human ALK; GST (N); made in house; host or cells: SF9 insect cells
In words: ALK Inhibition in Enzyme Assay (Lance TR-FRET kinase assay). It is filed as biochemical. The method, boiled down: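 Purified enzyme phosphorylated a biotinylated peptide substrate for 90 minutes at room temperature. Reactions were stopped with 20 mM EDTA in 50 mM Tris (pH 7.5), 100 mM NaCl, 0.05% BSA, 0.1% Tween-20. Phosphopeptide was detected by TR-FRET with SA-APC and Eu-W1024 anti-phosphotyrosine antibody PT66, excitation 320 nm.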
As a reminder, the IC50 is the point on the concentration scale where inhibition reaches its midpoint. Lower therefore signals higher potency. The compound `CC(C)NC(C)[C@H]1CC[C@@H](n2/c(=N/C(=O)c3cccc(F)c3)[nH]c3ccc(CN4CCC(C(C)(C)O)CC4)cc32)CC1` (stereo partly drawn) [Example 72, (E)-3-Fluoro-N-(6-((4-(2-hydroxypropan-2-yl)piperidin-1-yl)methyl)-1-(cis-4-(1-(isopropylamino)ethyl)cyclohexyl)-1H-benzo[d]imidazol-2(3H)-ylidene)benzamide] showed a 50% inhibitory concentration (IC50) of under 50 nM.
Regarding `CC(C)NC(=O)[C@H]1CC[C@@H](n2/c(=N/C(=O)c3ccc(F)cc3)[nH]c3cnccc32)CC1` [Example 156, (E)-4-Fluoro-N-(1-(cis-4-(isopropylcarbamoyl)cyclohexyl)-1H-imidazo[4,5-c]pyridin-2(3H)-ylidene)benzamide], the half-maximal inhibitory concentration (IC50) is under 50 nM.
For the compound `CC(C)(C)OC(=O)N1CCC(n2/c(=N/C(=O)c3ccccc3)[nH]c3cnc(OCCN4CCCCC4)cc32)CC1` [Example 64, (E)-tert-Butyl 4-(2-(benzoylimino)-6-(2-(piperidin-1-yl)ethoxy)-2,3-dihydro-1H-imidazo[4,5-c]pyridin-1-yl)piperidine-1-carboxylate], the IC50 lay in the range of 100 to 1000 nM.
`CC(C)NC(=O)[C@H]1CC[C@@H](n2/c(=N/C(=O)c3cc(F)cc(Cl)c3)[nH]c3cnc(OCCN4CCCCC4)cc32)CC1` [Example 115, (E)-3-Chloro-5-fluoro-N-(1-(cis-4-(isopropylcarbamoyl)cyclohexyl)-6-(2-(piperidin-1-yl)ethoxy)-1H-imidazo[4,5-c]pyridin-2 (3H)-ylidene)benzamide] gave a half-inhibitory concentration (IC50) of under 50 nM.
`O=C(/N=c1\[nH]c2ccc(CN3CCCCC3)cc2n1[C@H]1CC[C@@H](C(=O)NC2CC2)CC1)c1ccc(F)cc1` [Example 31, (E)-N-(1-(cis-4-(Cyclopropylcarbamoyl)cyclohexyl)-6-(piperidin-1-ylmethyl)-1H-benzo[d]imidazol-2(3H)-ylidene)-4-fluorobenzamide] displayed a 50% inhibitory concentration (IC50) of under 50 nM.
On to `CN1CCN(C(=O)[C@H]2CC[C@@H](n3/c(=N/C(=O)c4ccc(F)cc4)[nH]c4ccc(CN5CCOCC5)cc43)CC2)CC1` [Example 203, (E)-4-Fluoro-N-(1-(cis-4-(4-methylpiperazine-1-carbonyl)cyclohexyl)-6-(morpholinomethyl)-1H-benzo[d]imidazol-2(3H)-ylidene)benzamide], for which the concentration for half-maximal inhibition (IC50) was 100 to 1000 nM.
Consider `COCc1ccc2[nH]/c(=N\C(=O)c3ccc(F)cc3)n([C@H]3CC[C@@H](C(=O)NC(C)C)CC3)c2c1` [Example 192, (E)-4-Fluoro-N-(1-(cis-4-(isopropylcarbamoyl)cyclohexyl)-6-(methoxymethyl)-1H-benzo[d]imidazol-2(3H)-ylidene)benzamide], for which the concentration for half-maximal inhibition (IC50) is under 50 nM.
`NC(=O)[C@H]1CC[C@H](n2/c(=N/C(=O)c3ccc(F)cc3)[nH]c3cnc(OCCN4CCCCC4)cc32)CC1` [Example 248, (E)-N-(1-(trans-4-Carbamoylcyclohexyl)-6-(2-(piperidin-1-yl)ethoxy)-1H-imidazo[4,5-c]pyridin-2(3H)-ylidene)-4-fluorobenzamide] yielded an IC50 of 1000 to 5000 nM.
With `CC(C)NC(=O)[C@H]1CC[C@@H](n2/c(=N/C(=O)c3ccc(F)cc3F)[nH]c3cnc(OCCN4CCCCC4)cc32)CC1` [Example 94, (E)-2,4-Difluoro-N-(1-(cis-4-(isopropylcarbamoyl)cyclohexyl)-6-(2-(piperidin-1-yl)ethoxy)-1H-imidazo[4,5-c]pyridin-2(3H)-ylidene)benzamide] the figure was 50 to 100 nM; with `CC(C)NC(=O)[C@H]1CC[C@@H](n2/c(=N/C(=O)c3ccc(F)cc3)[nH]c3cnc(OCCn4cncn4)cc32)CC1` [Example 164, (E)-N-(6-(2-(1H-1,2,4-Triazol-1-yl)ethoxy)-1-(cis-4-(isopropylcarbamoyl)cyclohexyl)-1H-imidazo[4,5-c]pyridin-2(3H)-ylidene)-4-fluorobenzamide], under 50 nM; with `NC(=O)[C@H]1CC[C@H](n2/c(=N/C(=O)c3cc(F)cc(F)c3)[nH]c3cnc(OCCN4CCCCC4)cc32)CC1` [Example 247, (E)-N-(1-(trans-4-Carbamoylcyclohexyl)-6-(2-(piperidin-1-yl)ethoxy)-1H-imidazo[4,5-c]pyridin-2(3H)-ylidene)-3,5-difluorobenzamide], 1000 to 5000 nM.
The compound `C=CCNS(=O)(=O)c1cccc(C(=O)/N=c2\[nH]c3ccc(CO)cc3n2C23CC4CC(CC(C4)C2)C3)c1` [Example 17, (E)-3-(N-Allylsulfamoyl)-N-(1-adamantyl-6-(hydroxymethyl)-1H-benzo[d]imidazol-2(3H)-ylidene)benzamide] showed an IC50 of under 50 nM.
`CC(C)NC(=O)[C@H]1CC[C@@H](n2/c(=N/C(=O)C3CCCCC3)[nH]c3cnc(OCCN4CCCCC4)cc32)CC1` [Example 112, cis-4-((E)-2-(Cyclohexanecarbonylimino)-6-(2-(piperidin-1-yl)ethoxy)-2,3-dihydro-1H-imidazo[4,5-c]pyridin-1-yl)-N-isopropylcyclohexanecarboxamide] showed an IC50 of 5000 to 10000 nM.
In turn, `C=CCNS(=O)(=O)c1cccc(C(=O)Nc2nc3ccc(CN4CCCCC4)cc3n2C23CC4CC(CC(C4)C2)C3)c1` [Example 18, 3-(N-Allylsulfamoyl)-N-(1-adamantyl-6-(piperidin-1-ylmethyl)-1H-benzo[d]imidazol-2-yl)benzamide] registered an IC50 of under 50 nM.
For `CC(C)CN1CCC(n2/c(=N/C(=O)c3ccccc3)[nH]c3cnc(OCCN4CCCCC4)cc32)CC1` [Example 68, (E)-N-(1-(1-Isobutylpiperidin-4-yl)-6-(2-(piperidin-1-yl)ethoxy)-1H-imidazo[4,5-c]pyridin-2(3H)-ylidene)benzamide] the value was 5000 to 10000 nM; for `C[C@@H]1CN(C(=O)OC(C)(C)C)CCN1C(=O)[C@H]1CC[C@@H](n2/c(=N/C(=O)c3ccc(F)cc3)[nH]c3cnc(OCCN4CCCCC4)cc32)CC1` [Example 56, (R)-tert-Butyl 4-(cis-4-((E)-2-(4-fluorobenzoylimino)-6-(2-(piperidin-1-yl)ethoxy)-2,3-dihydro-1H-imidazo[4,5-c]pyridin-1-yl)cyclohexanecarbonyl)-3-methylpiperazine-1-carboxylate], 100 to 1000 nM.
With `CC(C)NC(=O)[C@H]1CC[C@@H](n2/c(=N/C(=O)c3ccnc(F)c3)[nH]c3cnc(OCCN4CCCCC4)cc32)CC1` [Example 106, (E)-2-Fluoro-N-(1-(cis-4-(isopropylcarbamoyl)cyclohexyl)-6-(2-(piperidin-1-yl)ethoxy)-1H-imidazo[4,5-c]pyridin-2(3H)-ylidene)isonicotinamide] the figure was under 50 nM; with `COC(=O)[C@H]1CC[C@@H](n2/c(=N/C(=O)c3cccc(C(F)(F)F)c3)[nH]c3ccc(CO)cc32)CC1` [Example 12, cis-Methyl 4-((E)-6-(hydroxymethyl)-2-(3-(trifluoromethyl)benzoylimino)-2,3-dihydro-1H-benzo[d]imidazol-1-yl)cyclohexanecarboxyl], 100 to 1000 nM.
Compound `NC(=O)[C@]1(c2cccc(Br)c2)C[C@H](n2/c(=N/C(=O)c3ccc(F)cc3)[nH]c3cnc(OCCN4CCCCC4)cc32)C1` [Example 252, (E)-N-(1-(cis-3-(3-Bromophenyl)-3-carbamoylcyclobutyl)-6-(2-(piperidin-1-yl)ethoxy)-1H-imidazo[4,5-c]pyridin-2(3H)-ylidene)-4-fluorobenzamide] returned an IC50 of 1000 to 5000 nM.
For the compound `CC(C)(O)C1CCN(Cc2ccc3[nH]/c(=N\C(=O)c4ccc(F)cc4)n([C@H]4CC[C@]5(CC4)NC(=O)NC5=O)c3c2)CC1` [Example 242, (E)-N-(1-((5S,8S)-2,4-Dioxo-1,3-diazaspiro[4.5]decan-8-yl)-6-((4-(2-hydroxypropan-2-yl)piperidin-1-yl)methyl)-1H-benzo[d]imidazol-2(3H)-ylidene)-4-fluorobenzamide], the half-maximal inhibitory concentration (IC50) was 100 to 1000 nM.
With `CC(C)NC(=O)[C@H]1CC[C@@H](n2/c(=N/C(=O)c3cc(F)cc(C#N)c3)[nH]c3cnc(OCCN4CCCCC4)cc32)CC1` [Example 111, (E)-3-Cyano-5-fluoro-N-(1-(cis-4-(isopropylcarbamoyl)cyclohexyl)-6-(2-(piperidin-1-yl)ethoxy)-1H-imidazo[4,5-c]pyridin-2(3H)-ylidene)benzamide] the figure was under 50 nM.
For `CC(C)NC(=O)[C@H]1CC[C@@H](n2/c(=N/C(=O)c3ccc(F)cc3)[nH]c3ccc(CO)cc32)CC1` [Example 170, (E)-4-Fluoro-N-(6-(hydroxymethyl)-1-(cis-4-(isopropylcarbamoyl)cyclohexyl)-1H-benzo[d]imidazol-2(3H)-ylidene)benzamide] the value was under 50 nM; for `CC(C)NC(=O)[C@H]1CC[C@@H](n2/c(=N/C(=O)c3cccc(OC(F)(F)F)c3)[nH]c3cnc(OCCN4CCCCC4)cc32)CC1` [Example 121, (E)-N-(1-(cis-4-(Isopropylcarbamoyl)cyclohexyl)-6-(2-(piperidin-1-yl)ethoxy)-1H-imidazo[4,5-c]pyridin-2(3H)-ylidene)-3-(trifluoromethoxy)benzamide], 50 to 100 nM; for `CC(C)(O)C1CCN(CCOc2cc3c(cn2)[nH]/c(=N\C(=O)c2cccc(F)c2)n3[C@H]2CC[C@@H](C(=O)O)CC2)CC1` [Example 79, cis-4-((E)-2-(3-Fluorobenzoylimino)-6-(2-(4-(2-hydroxypropan-2-yl)piperidin-1-yl)ethoxy)-2,3-dihydro-1H-imidazo[4,5-c]pyridin-1-yl)cyclohexanecarboxylic acid], 1000 to 5000 nM.
The compound `CC(=O)[C@H]1CC[C@@H](n2/c(=N/C(=O)c3cccc(F)c3)[nH]c3ccc(CN4CCC(C(C)(C)O)CC4)cc32)CC1` [Example 71, (E)-N-(1-(cis-4-Acetylcyclohexyl)-6-((4-(2-hydroxypropan-2-yl)piperidin-1-yl)methyl)-1H-benzo[d]imidazol-2(3H)-ylidene)-3-fluorobenzamide] registered an IC50 of 100 to 1000 nM.
